Results on two molecules are retold here after PubChem BioAssay (NCI).

Test systems include A498 renal; A549 NSCLC; BT-549 breast; CAKI-1 renal; CCRF-CEM leukemia; HOP-92 NSCLC; K-562 leukemia; LOX IMVI melanoma; PC-3 prostate; SNB-19 CNS.
Holding throughout (test): NCI-60 cell line screen, 48 h

Molecules are shown by their SMILES.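 In this assay, cells in 96-well plates receive the compound at five concentrations for 48 hours. Endpoints are linearly interpolated between the surrounding concentrations. The concentration for full growth arrest is given as TGI.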

Turning to `Cc1cc(N(CCC#N)S(=O)(=O)c2ccccc2)ccc1C=Nc1ccc(C(=O)O)cc1`, the TGI is 44.5 µM with A498 renal; 52.5 µM in the assay on A549 NSCLC; over 100 µM in the assay on BT-549 breast; 5.73 µM in the assay on CAKI-1 renal; over 26.5 µM in the assay with CCRF-CEM leukemia; over 100 µM in the assay on HOP-92 NSCLC. The TGI in the assay on K-562 leukemia is 17.9 µM; in the assay with LOX IMVI melanoma it was 25.5 µM; in the assay on PC-3 prostate, over 100 µM; in the assay on SNB-19 CNS it was 44.8 µM.

On to `CC1(C)OCC2OC(n3cnc4c(N)nc(Cl)nc43)C(OS(C)(=O)=O)C2O1` (stereo not given), for which the TGI with A498 renal, in the assay with A549 NSCLC, in the assay with BT-549 breast, in the assay with CAKI-1 renal, in the assay with CCRF-CEM leukemia and in the assay with HOP-92 NSCLC was over 100 µM each time. Besides, the TGI with K-562 leukemia, in the assay on LOX IMVI melanoma, in the assay with PC-3 prostate and in the assay on SNB-19 CNS was over 100 µM each time.
